Here are results for four molecules from patent US10172805B2, “Prolonged release formulations comprising an 2-oxo-1-pyrrolidine derivative” (UCB BIOPHARMA SPRL, priority 2008, dated 2019).

Data set [1] relates to amygdala-kindled rats. Nature of the data set: fully amygdala-kindled rats. To be noted: for dose significantly reducing the after-discharge duration: brivaracetam at highest dose tested, levetiracetam inactive up to stated dose. It is filed as in vivo, rat.
Data set [2] has as its system GAERS rats. Nature of the data set: spontaneous SWDs in GAERS rats. It is filed as in vivo, rat.
Data set [3] relates to patients with post-herpetic neuralgia. Nature of the data set: treatment of patients with post-herpetic neuralgia. The class given is in vivo, human. On the procedure:
(§1) Brivaracetam is effective in the treatment of epilepsy. A clinical trial evaluated the efficacy and safety of Brivaracetam (5, 20 and 50 mg per day) in the adjunctive treatment of adult patients with refractory partial onset seizures, with or without secondary generalization. Brivaracetam is also effective in the treatment of patients with post-herpetic neuralgia.

In data set [4] the test system is genetically sound-sensitive male mice. The data set can be described thus: audiogenic seizures in mice. Particulars: audiogenic seizure-susceptible mice; i.p. It is filed as in vivo. On the procedure: Audiogenic seizures in mice: Genetically sound-sensitive male mice (16-28 g; n=10 per group), responding with wild running, clonic and tonic convulsions to an acoustic stimulation, were used. Audiogenic seizures were induced by an acoustic stimulus (90 dB, 10-20 kHz) applied for 30 s. The mice were pretreated with either saline, brivaracetam (i.p., 30 min) or levetiracetam (i.p., 60 min), and the proportion of mice protected against clonic convulsions was used as the end point to assess anticonvulsant activity.

Data set [5] has as its system adult patients with refractory partial onset seizures. The data set can be described thus: clinical studies, adjunctive treatment of partial onset seizures (epilepsy). The class given is in vivo, human. On the procedure: as §1
Seletracetam is effective in the treatment of epilepsy. Two studies were conducted with Seletracetam in epilepsy evaluating the efficacy and safety of Seletracetam in the adjunctive treatment of partial onset seizures in highly refractory adult patients currently receiving up to three concomitant anti-epileptic drugs.

Data set [6] is described as follows: BCS classification. It is filed as physicochemical. On the procedure:
Considering Levetiracetam, Brivaracetam and Seletracetam are classified as BCS I, in order to achieve a prolonged therapeutic plasmatic drug level the resulting in vitro dissolution (USP<711> apparatus n°2) in a buffered aqueous media has to show a drug release of no more than 40% after 1 hour of dissolution, of 25% -80% after 4 hours of dissolution and of no less than 80% after 16 hours of dissolution. Preferably, a profile of no more than 35% after 1 hour of dissolution, of 35% -75% after 4 hours of dissolution and of no less than 80% after 16 hours of dissolution. More preferably a profile of no more than 30% after 1 hour of dissolution, of 45% -70% after 4 hours of dissolution and of no less than 80% after 16 hours of dissolution.

Data set [7] concerns mice. Nature of the data set: corneal kindling of mice. The class given is in vivo.
Data set [8] concerns rat hippocampal slices. Nature of the data set: epileptiform responses in hippocampal slices induced by high-K+/low-Ca2+ fluid (HKLCF). It is filed as cell-based, Sprague-Dawley rats. Further details: rate of spontaneous field bursting: dose or concentration left out as unconfirmed. Particulars: for evoked epileptiform responses (PS1 amplitude, repetitive PSs) in CA3 area: HKLCF perfusion, fimbrial stimulation. On the procedure: The effect of brivaracetam on epileptiform responses induced by high-K+/low-Ca2+ concentrations or by bicuculline was examined in transverse hippocampal slices prepared from Sprague-Dawley rats according to previously reported standard procedures. The epileptiform responses were induced by passing from a normal perfusion of artificial cerebrospinal fluid (ACSF) (K+3 mM; Ca2+2.4 mM) to either high-K+/low-Ca2+ fluid (HKLCF) (K+7.5 mM; Ca2+0.5 mM) or to […] bicuculline methiodide (BMI)-containing ACSF.
Extracellular field potentials (FPs) were recorded in the CA3 area of the slices with 2 M NaCl-filled glass microelectrodes. The evoked FPs were recorded at 10-min intervals in response to fimbrial stimulation with constant current rectangular pulses that elicit a single population spike (PS) of 50-75% of the maximal amplitude when the slice is in ACSF. In the HKLCF model, 2 min of spontaneous activity were also recorded, in the middle of each 10-min interval between the recordings of evoked responses.
Either brivaracetam or levetiracetam was added to the bathing fluid of the slices 20 min before shifting from ACSF to either HKLCF or […] BMI-containing ACSF, and was kept in the perfusion fluid throughout the experiment.

For data set [9], the system named is mice. Nature of the data set: maximal electroshock in mice. It is filed as in vivo. Particulars: i.p. 30 min before seizure induction; higher ED50 values than audiogenic. (In general: The maximal electroshock test induces tonic seizures with an electrical stimulus.)
In data set [10] the test system is mice. The data set can be described thus: chemically induced seizures in mice (pentylenetetrazol). The class given is in vivo. Particulars: i.p. 30 min before seizure induction; higher ED50 values than audiogenic. On the procedure: The dose was selected based on dose-effect curves in saline-treated animals as the convulsive dose inducing clonic convulsions of all four extremities in 97% of the animals. Immediately after administration of the chemoconvulsant, the mice were placed individually in small plastic cages (25 13 8 cm) and observed for the presence of clonic convulsions in all four extremities, for 60 min. The occurrence of tonic convulsions (hindlimb extension) and mortality was also recorded during this interval. The proportion of mice protected against clonic convulsions was calculated and used as the end point for anticonvulsant activity.

The nature of data set [11]: water solubility. It is filed as physicochemical.
Data set [12] has as its system rat hippocampal slices. Particulars: introductory statement; cited from earlier work.
The subject of data set [13] is rat hippocampal slices. Particulars: introductory statement; cited from earlier work. This is another data set of the same source.
The conditions of data set [14]: A. J. GOWER et al., Eur. J. Pharmacol., 222, (1992), 193-203; cited from earlier work.

As for `CCC[C@@H]1CC(=O)N([C@@H](CC)C(N)=O)C1` [Brivaracetam, (2S)-2-[(4R)-2-oxo-4-propyl-pyrrolidin-1-yl] butanamide], in data set [1], the “dose from which significant suppression in motor-seizure severity is induced” value turned out to be 21.2 mg/kg and the “dose significantly reducing the after-discharge duration” value was 212.3 mg/kg. Besides, in [2], the “dose from which spontaneous SWDs are significantly suppressed” value was found to be 2.1 mg/kg. Moreover, the “inhibition of spontaneous SWDs” value in [2] (highest dose tested (67.9 mg kg−1)) is reported as “complete inhibition”. In addition, the “efficacy in post-herpetic neuralgia” value in data set [3] is reported as “effective”. In data set [4], the “protection against clonic convulsions” value was “protected”. Moreover, in [5], the “efficacy in the treatment of epilepsy” value is “effective”. In addition, the BCS class entry in data set [6] was “BCS I”. Moreover, the “incidence of generalized motor seizures after termination of treatment” value in data set [7] (continued corneal stimulations, group previously treated with the highest dose) is on record as “persistent reduction”. Further, the “incidence of generalized motor seizures” value in [7] (pretreatment during corneal kindling, levetiracetam at higher doses) is “significant reduction”. The “rate of spontaneous field bursting” value in data set [8] (HKLCF) was “reduced the rate”. In data set [8], the “evoked epileptiform responses (PS1 amplitude, repetitive PSs) in CA3 area” value is given as “reduced these epileptiform responses”. In addition, the “protection against tonic hindlimb extension induced by a maximal electroshock” value in [9] is recorded as “protected”. Also, in [10], the “protection against clonic convulsions induced by pentylenetetrazol” value is listed as “protected”.

By solubility is commonly meant how much of the substance goes into solution per volume. Take `CC[C@@H](C(N)=O)N1CCCC1=O` [Levetiracetam, (S)-(−)α-ethyl-2-oxo-1-pyrrolidineacetamide]: the solubility in [11] was over 500 mg/mL. Further, the “epileptiform responses induced by high-K+/low-Ca2+ concentrations” value in [12] was “reduces epileptiform responses”. In data set [1], the “dose from which significant suppression in motor-seizure severity is induced” value is 170 mg/kg and the “dose significantly reducing the after-discharge duration” value is over 1700 mg/kg. The “dose from which spontaneous SWDs are significantly suppressed” value in data set [2] was found to be 5.4 mg/kg. Further, the “protection against clonic convulsions” value in [4] is “protected”. In data set [13], the “epileptiform responses induced by bicuculline” value was “reduces epileptiform responses”. Further, in [6], the BCS class entry is “BCS I”. Besides, the “evoked epileptiform responses (PS1 amplitude, repetitive PSs) in CA3 area” value in [8] is “reduced these epileptiform responses”.

As to `CC[C@@H](C(N)=O)N1C[C@H](C=C(F)F)CC1=O` [Seletracetam, (2S)-2-[(4S)-4-(2,2-difluorovinyl)-2-oxo-pyrrolidin-1-yl]butanamide], the “efficacy in the treatment of epilepsy” value in data set [5] is given as “effective”. The BCS class result in data set [6] was “BCS I”.

On to `CC[C@H](C(N)=O)N1CCCC1=O` [(R)-(+)-α-ethyl-2-oxo-1-pyrrolidine-acetamide], for which, in data set [14], the “activity in the treatment of epilepsy” value is recorded as “completely devoid of activity”.
